“Also recorded” adds a separate entry of the source.
Columns and labels:
Type in all cases: cell-based, human
[1] = system: hiPSC chondrogenic pellets; test: RNA-FISH of d28 pellets for WNT3A, WNT4 and COL2A1; settings: d28 pellets vs TGF-β3-treated
Experimental: RNA fluorescence in situ hybridization (RNA-FISH). […] Pellets were cryo-sectioned at 10 μm thick and fixed using 4% paraformaldehyde in PBS on ice for 10 min. Sample pre-treatment and RNA probe hybridization, amplification, and signal development were performed using the RNAscope Multiplex Fluorescent Reagent Kit v1 (Advanced Cell Diagnostics, #320850) following the manufacturer's instruction. Samples were imaged with multichannel confocal microscopy (Zeiss LSM 880). Tiled images with Z-stacks were taken at 20× magnification to capture the entire pellet. Maximum intensity projection, a process in which the brightest pixel (voxel) in each layer along Z direction is projected in the final 2D image, was performed using Zeiss Zen Blue (version 2.5).

[2] = system: WNT2B, WNT3A, WNT4, WNT5B, WNT7B; test: Western blots of WNT proteins in d28 pellets
Experimental: Western blots. To examine the effect of WNT-C59 on WNT inhibition in the pellets at protein levels, Western blot analysis was performed on d28 pellets with or without WNT-C59 treatments. Six to eight pellets per experimental group were pooled and digested with 0.04% Type II collagenase solution in DMEM/F12 for 1 h. Cells were washed once with PBS and lysed in RIPA buffer (Cell Signaling Technology, #9806S) with protease inhibitor (ThermoFisher, #87786) and phosphatase inhibitor (Santa Cruz Biotechnology, #sc-45044). Protein concentration was measured using the BCA Assay (Pierce). Ten micrograms of proteins for each well were separated on 10% sodium dodecyl sulfate-polyacrylamide gel electrophoresis gels with prestained molecular weight markers (Bio-Rad, 161-0374) and transferred to a polyvinylidene fluoride (PVDF) membrane. The PVDF membrane blots were incubated overnight at 4° C. with the following primary antibodies: anti-WNT2B (1:350, Abcam, ab178418), anti-WNT3A (1:1000, Abcam, ab81614), anti-WNT4 (1:500, Abcam, ab91226), anti-WNTSB (1:500, Abcam, ab93134), anti-WNT7B (1:2000, Abcam, ab155313) and anti-GAPDH (1:30000, Proteintech 60004-1-Ig) for loading control, respectively. […] Immunoblots were imaged and analyzed using the iBright FL1000 Imaging System (Thermo Fisher). […]

[3] = system: hiPSC chondrogenic pellets; test: Immunohistochemistry of collagens in pellets; settings: pellet culture
Experimental: WNT ligands treatment during chondrogenesis. For WNT ligands treatment during chondrogenesis, pellets were treated with either 10 ng ml^−1 TGF-β3 (control group) or a combination of 10 ng ml^−1 TGF-β3 and 100 ng ml^−1 individual WNT ligand (WNT2B, WNT3A, WNT4, WNT5B, or WNT7B, all from R&D system) in chondrogenic medium from d0 to d42 as appropriate. For WNT ligands treatment during the Cp stage, cells were supplemented with either 20 ng ml^−1 BMP4 (R&D Systems, #314-BP-010) alone (control group), a combination of 20 ng ml^−1 BMP4 and 1 μM WNT-059, or a combination of 20 ng ml^−1 BMP4 and 100 ng ml^−1 WNT3A (R&D Systems, #5036-WN-010) in mesodermal differentiation medium from d7 to d12.
Immunohistochemistry. Histologic sections (8 μm thick) of the pellets were rinsed with xylenes three times and rehydrated before labeling. Antigen retrieval was performed with 0.02% proteinase K for 3 min at 37° C. for COL2A1 and COL6A1 and with pepsin for 5 min at room temperature for COL1A1 and COL10A1 followed by peroxidase quench then serum blocking for 30 min at room temperature. […]

With `Cc1cc(-c2ccc(CC(=O)Nc3ccc(-c4cccnc4)cc3)cc2)ccn1` [WNT-C59] as the compound, how does the “COL2A1 RNA-FISH labeling” value [1] read?
The value was “more homogenous distribution; also recorded: increased”.

And the “WNT3A and WNT4 expression (RNA-FISH)” value [1]?
The value was “decreased”.

What about the WNT5B protein [2] of the same compound?
The WNT5B protein was “only moderately inhibited”.

And the “protein levels of WNT2B, WNT3A, WNT4, and WNT7B” value [2]?
The value was “decreased”.

What about the “COL1A1 and COL10A1 staining/production” value [3] of the same compound?
Its value is “low”.

Source: patent publication US20230295571A1, “COMPOSITIONS AND METHODS FOR STEM CELL CHONDROGENESIS” (Washington University, priority 2020, published 2023)
